Assay results published in publication PMC10743905, “Design, Synthesis, and In Vitro and In Vivo Bioactivity Studies of Hydrazide–Hydrazones of 2,4-Dihydroxybenzoic Acid” (International Journal of Molecular Sciences, 2023).
Converted amounts (≈) assume the structure as drawn.

Key:
[1] = tested on: Bacillus subtilis ATCC 6633; assay: Broth microdilution MIC/MBC; type: cell-based; settings: for MBC: ATCC6633; for MIC: ATCC6633, read-out: MIC
Text: Detailed procedures are presented in the Supplementary Materials. […]
(§1) In vitro antimicrobial activity assays - Methodology
(§2) The examined compounds 1 - 24 were screened in vitro for antibacterial and antifungal activities using the broth microdilution method according to procedure reported earlier by our research group and European Committee on Antimicrobial Susceptibility Testing (EUCAST) and Clinical and Laboratory Standards Institute (CLSI) guidelines against a panel of reference and clinical or saprophytic strains of microorganisms, in-cluding Gram-positive bacteria, Staphylococcus aureus ATCC 43300 (Methicillin Resistant S. aureus – MRSA), Staphylococcus aureus ATCC 29213 (Methicillin Susceptible S. aureus – MSSA), Staphylococcus epidermidis ATCC 12228, Enterococcus faecalis ATCC 29212, Micro-coccus luteus ATCC 10240, Bacillus subtilis ATCC 6633 and Bacillus cereus ATCC 10876), Gram-negative bacteria (Bordetella bronchiseptica ATCC 4617, Escherichia coli ATCC 25922, Klebsiella pneumoniae ATCC 13883, Proteus mirabilis ATCC 12453, Salmonella typhimurium ATCC 14028 and Pseudomonas aeruginosa ATCC 9027) and fungi belonging to yeasts (Can-dida albicans ATCC 10231, Candida albicans ATCC 2091, Candida parapsilosis ATCC 22019, Candida glabrata ATCC 90030 and Candida krusei ATCC 14243). The microorganisms be-longing to ATCC came from American Type Culture Collection, routinely used for the evaluation of antimicrobials. All the used microbial cultures were first subcultured on nu-trient agar or Sabouraud agar at 35°C for 18-24 h or 30°C for 24-48 h for bacteria and fungi, […]
(§3) The surface of Mueller-Hinton agar (for bacteria) and RPMI 1640 with MOPS (for fungi) were inoculated with the suspensions of bacterial or fungal species. Microbial suspensions were prepared in sterile saline with an optical density of McFarland standard scale 0.5.
(§4) Samples containing examined compounds were dissolved in dimethyl sulfoxide (DMSO).
(§5) Furthermore, bacterial and fungal suspensions were put onto Petri dishes with solid me-dia containing 2 mg/mL of the tested compounds followed incubation at 37°C for 24h and 30°C for 48h for bacteria and fungi, respectively. The inhibition of microbial growth was judged by comparison with a control culture prepared without any sample tested. Ciprof-loxacin, vancomycin, nitrofurantoin, cefuroxime, ampicillin or nystatin (Sigma) were used as a reference antibacterial or antifungal compounds, respectively.
(§6) Subsequently, the MIC (Minimal Inhibitory Concentration) of the compounds was ex-amined by the microdilution broth method, using their two-fold dilutions in Mueller- […]
(§7) Hinton broth or (for bacteria) and RPMI 1640 broth with MOPS (for fungi) prepared in 96-well polystyrene plates. Final concentrations of the compounds ranged from 1000 to 0.488 µg/ml. Microbial suspensions were prepared in 0.85% NaCl with an optical density of 0.5 McFarland standard. Next each bacterial or fungal suspension was added per each well containing broth and various concentrations of the examined compounds. After incuba-

[2] = tested on: Staphylococcus aureus ATCC 29213; assay: Broth microdilution MIC/MBC; type: cell-based; settings: for MBC / MIC: ATCC29213
Text: as §1
as §2, with “antimicrobials.” for “antimicrobials. All the used microbial cultures were first subcultured on nu-trient agar or Sabouraud agar at 35°C for 18-24 h or 30°C for 24-48 h for bacteria and fungi,”
(§8) Samples containing examined compounds were dissolved in dimethyl sulfoxide (DMSO). […]
as §6, §7

[3] = tested on: Proteus mirabilis ATCC 12453; assay: Broth microdilution MIC/MBC; type: cell-based; settings: ATCC12453
Text: as §1
as §2, with “antimicrobials.” for “antimicrobials. All the used microbial cultures were first subcultured on nu-trient agar or Sabouraud agar at 35°C for 18-24 h or 30°C for 24-48 h for bacteria and fungi,”
as §8, §6, §7

[4] = tested on: Pseudomonas aeruginosa ATCC 9027; assay: Broth microdilution MIC/MBC; type: cell-based; settings: ATCC9027
Text: as §1
as §2, with “antimicrobials.” for “antimicrobials. All the used microbial cultures were first subcultured on nu-trient agar or Sabouraud agar at 35°C for 18-24 h or 30°C for 24-48 h for bacteria and fungi,”
as §8, §6, §7

[5] = tested on: Micrococcus luteus ATCC 10240; assay: Broth microdilution MIC/MBC; type: cell-based; settings: for MBC: ATCC10240; for MIC: ATCC10240, read-out: MIC
Text: as §1
as §2, with “antimicrobials.” for “antimicrobials. All the used microbial cultures were first subcultured on nu-trient agar or Sabouraud agar at 35°C for 18-24 h or 30°C for 24-48 h for bacteria and fungi,”
as §8, §6, §7

[6] = tested on: Staphylococcus epidermidis ATCC 12228; assay: Broth microdilution MIC/MBC; type: cell-based; settings: for MBC: ATCC12228; for MIC: ATCC12228, read-out: MIC
Text: as §1
as §2, with “antimicrobials.” for “antimicrobials. All the used microbial cultures were first subcultured on nu-trient agar or Sabouraud agar at 35°C for 18-24 h or 30°C for 24-48 h for bacteria and fungi,”
as §8, §6, §7

[7] = tested on: Staphylococcus aureus ATCC 43300; assay: Broth microdilution MIC/MBC; type: cell-based; settings: Staphylococcus aureus ATCC 43300 (MRSA)
Text: as §1
as §2, with “antimicrobials.” for “antimicrobials. All the used microbial cultures were first subcultured on nu-trient agar or Sabouraud agar at 35°C for 18-24 h or 30°C for 24-48 h for bacteria and fungi,”
as §8, §6, §7

[8] = tested on: Salmonella typhimurium ATCC 14028; assay: Broth microdilution MIC/MBC; type: cell-based; settings: Salmonella enterica
Text: as §1
as §2, with “antimicrobials.” for “antimicrobials. All the used microbial cultures were first subcultured on nu-trient agar or Sabouraud agar at 35°C for 18-24 h or 30°C for 24-48 h for bacteria and fungi,”
as §8, §6, §7

[9] = tested on: reference Gram-positive bacteria; assay: Broth microdilution, summary over the Gram-positive panel; type: cell-based; settings: read-out: MIC
Text: as §1
as §2, with “antimicrobials.” for “antimicrobials. All the used microbial cultures were first subcultured on nu-trient agar or Sabouraud agar at 35°C for 18-24 h or 30°C for 24-48 h for bacteria and fungi,”
as §8, §6, §7

[10] = tested on: Klebsiella pneumoniae ATCC 13883; assay: Broth microdilution MIC/MBC; type: cell-based; settings: ATCC13883
Text: as §1, §2, §3, §4, §5, §6, §7

[11] = tested on: Escherichia coli ATCC 25922; assay: Broth microdilution MIC/MBC; type: cell-based; settings: ATCC25922
Text: as §1, §2, §3, §4, §5, §6, §7

[12] = tested on: Bordetella bronchiseptica ATCC 4617; assay: Broth microdilution MIC/MBC; type: cell-based
Text: as §1, §2, §3, §4, §5, §6, §7

[13] = tested on: Bacillus cereus ATCC 10876; assay: Broth microdilution MIC/MBC; type: cell-based; settings: for MBC: ATCC10876; for MIC: ATCC10876, read-out: MIC
Text: as §1, §2, §3, §4, §5, §6, §7

[14] = tested on: Enterococcus faecalis ATCC 29212; assay: Broth microdilution MIC/MBC; type: cell-based; settings: for MBC: ATCC29212, read-out: MBC; for MIC: ATCC29212, read-out: MIC
Text: as §1, §2, §3, §4, §5, §6, §7

[15] = tested on: Candida parapsilosis ATCC 22019; assay: Broth microdilution MIC/MFC; type: cell-based; settings: Lodderomyces parapsilosis, ATCC22019, read-out: MIC
Text: as §1, §2, §3, §4, §5, §6, §7

[16] = tested on: Candida glabrata ATCC 90030; assay: Broth microdilution MIC/MFC; type: cell-based; settings: Nakaseomyces glabratus, ATCC90030, read-out: MIC
Text: as §1, §2, §3, §4, §5, §6, §7

[17] = tested on: Candida albicans ATCC 2091; assay: Broth microdilution MIC/MFC; type: cell-based; settings: ATCC2091, read-out: MIC
Text: as §1, §2, §3, §4, §5, §6, §7

[18] = tested on: Candida albicans ATCC 10231; assay: Broth microdilution MIC/MFC; type: cell-based; settings: for MIC: ATCC10231, read-out: MIC
Text: as §1, §2, §3, §4, §5, §6, §7

[19] = tested on: Candida krusei ATCC 14243; assay: Broth microdilution MIC/MFC; type: cell-based; settings: Pichia kudriavzevii, ATCC14243, read-out: MIC
Text: as §1, §2, §3, §4, §5, §6, §7

Gram-negative bacteria = assay: Broth microdilution, summary over the Gram-negative panel; type: cell-based
Text: as §1, §2, §3, §4, §5, §6, §7

Row | SMILES | MIC [1] [µg/mL] | MIC [2] [µg/mL] | MIC [3] [µg/mL] | MIC [4] [µg/mL] | MBC/MIC [5] | MBC [5] [µg/mL] | MIC [5] [µg/mL] | MIC [6] [µg/mL] | MIC [7] [µg/mL] | MIC [8] [µg/mL] | melting point [°C] | MIC [10] [µg/mL] | MIC [11] [µg/mL] | MIC ([12]; ATCC4617) [µg/mL] | MIC [13] [µg/mL] | MIC [14] [µg/mL] | MIC [15] [µg/mL] | MIC [16] [µg/mL] | MIC [17] [µg/mL] | MIC [18] [µg/mL] | also measured
1 | O=C(N/N=C/c1ccc(O)c(Br)c1)c1ccc(O)cc1O [Compound 11, N-[(3-bromo-4-hydroxyphenyl)methylidene]-2,4-dihydroxybenzohydrazide] | 500 (≈ 1420 µM) | 250 (≈ 712 µM) | > 1000 | > 1000 | > 8 | > 1000 | 125 (≈ 356 µM) | 500 (≈ 1420 µM) | 500 (≈ 1420 µM) | > 1000 | 232 | > 1000 | > 1000 | > 1000 | 250 (≈ 712 µM) | 500 (≈ 1420 µM) | > 1000 | > 1000 | > 1000 | > 1000 | MBC/MIC [1]: > 2; MBC [1]: > 1000 µg/mL; MBC/MIC [2]: > 4; MBC [2]: > 1000 µg/mL; MBC/MIC [6]: 2; MBC [6]: 1000 µg/mL (≈ 2850 µM); MBC [7]: 1000 µg/mL (≈ 2850 µM); MBC/MIC [7]: 2; MIC [9]: 15.6 to 1000 µg/mL (≈ 44.5 to 2850 µM); MBC/MIC [13]: > 4; MBC [13]: > 1000 µg/mL; MBC/MIC [14]: > 2; MBC [14]: > 1000 µg/mL; MIC [19]: > 1000 µg/mL
2 | CCOc1cc(/C=N/NC(=O)c2ccc(O)cc2O)ccc1OC [Compound 14, N-[(3-ethoxy-4-methoxyphenyl)methylidene]-2,4-dihydroxybenzohydrazide] | > 1000 | > 1000 | > 1000 | > 1000 | > 8 | > 1000 | 125 (≈ 378 µM) | > 1000 | > 1000 | > 1000 | 230 | > 1000 | > 1000 | 1000 (≈ 3030 µM) | 500 (≈ 1510 µM) | > 1000 | > 1000 | > 1000 | > 1000 | 500 (≈ 1510 µM) | MBC (Gram-negative bacteria): > 1000 µg/mL; MIC (Gram-negative bacteria): 500 to 1000 µg/mL (≈ 1510 to 3030 µM); MBC/MIC [12]: 1; MBC ([12]; ATCC4617): 1000 µg/mL (≈ 3030 µM); MBC/MIC [13]: > 2; MBC [13]: > 1000 µg/mL; MFC/MIC [18]: > 2; MFC ([18]; ATCC10231, read-out: MFC): > 1000 µg/mL; MIC [19]: > 1000 µg/mL
3 | COc1ccc(/C=N/NC(=O)c2ccc(O)cc2O)cc1Br [Compound 10, N-[(3-bromo-4-methoxyphenyl)methylidene]-2,4-dihydroxybenzohydrazide] | 250 (≈ 685 µM) | 15.6 (≈ 42.8 µM) | > 1000 | > 1000 | > 4 | > 1000 | 250 (≈ 685 µM) | 1000 (≈ 2740 µM) | 31.2 (≈ 85.6 µM) | > 1000 | 260 | > 1000 | > 1000 | > 1000 | 125 (≈ 342 µM) | 250 (≈ 685 µM) | > 1000 | > 1000 | > 1000 | > 1000 | MBC/MIC [1]: > 4; MBC [1]: > 1000 µg/mL; MBC/MIC [2]: 16; MBC [2]: 250 µg/mL (≈ 685 µM); MBC/MIC [6]: > 1; MBC [6]: 1000 µg/mL (≈ 2740 µM); MBC [7]: 500 µg/mL (≈ 1370 µM); MBC/MIC [7]: 16; MIC [9]: 15.6 to 1000 µg/mL (≈ 42.8 to 2740 µM); MBC/MIC [13]: 2; MBC [13]: 250 µg/mL (≈ 685 µM); MBC/MIC [14]: 4; MBC [14]: 1000 µg/mL (≈ 2740 µM); MIC [19]: > 1000 µg/mL
4 | Cc1ccc(/C=N/NC(=O)c2ccc(O)cc2O)cc1 [Compound 3, 2,4-dihydroxy-N-[(4-methylphenyl)methylidene]benzohydrazide] | > 1000 | > 1000 | > 1000 | > 1000 | > 2 | > 1000 | 500 (≈ 1850 µM) | > 1000 | > 1000 | > 1000 | 248 | > 1000 | > 1000 | > 1000 | > 1000 | > 1000 | > 1000 | > 1000 | > 1000 | > 1000 | MIC [19]: > 1000 µg/mL
